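Where inhibition never reached the appropriate level, the endpoint shown equals the highest concentration tested. Otherwise, values were interpolated linearly from a five-concentration, 48-hour dose response in 96-well plates. TGI denotes the concentration required for complete inhibition of growth.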
Key:
Assay in all cases: NCI tumour cell line growth inhibition, 48 h
[1] = tested on: 786-0 renal
[2] = tested on: A549 NSCLC
[3] = tested on: ACHN renal
[4] = tested on: BT-549 breast
[5] = tested on: CAKI-1 renal
[6] = tested on: CCRF-CEM leukemia
[7] = tested on: COLO 205 colon
[8] = tested on: DU-145 prostate
[9] = tested on: EKVX NSCLC
[10] = tested on: HCC-2998 colon
[11] = tested on: HCT-116 colon
[12] = tested on: HCT-15 colon
[13] = tested on: HL-60(TB) leukemia
[14] = tested on: HOP-62 NSCLC
[15] = tested on: HOP-92 NSCLC
[16] = tested on: HS 578T breast
[17] = tested on: HT29 colon
[18] = tested on: IGROV1 ovarian
[19] = tested on: K-562 leukemia
[20] = tested on: KM12 colon
[21] = tested on: LOX IMVI melanoma
[22] = tested on: M14 melanoma
[23] = tested on: MALME-3M melanoma
[24] = tested on: MCF7 breast
[25] = tested on: MDA-MB-231 breast
[26] = tested on: MDA-MB-435
[27] = tested on: MDA-N
[28] = tested on: MOLT-4 leukemia
[29] = tested on: NCI-H226 lung
[30] = tested on: NCI-H23 lung
[31] = tested on: NCI-H460 lung
[32] = tested on: NCI-H522 lung
[33] = tested on: NCI/ADR-RES ovarian
[34] = tested on: OVCAR-3 ovarian
[35] = tested on: OVCAR-4 ovarian
[36] = tested on: OVCAR-5 ovarian
[37] = tested on: OVCAR-8 ovarian
[38] = tested on: PC-3 prostate
[39] = tested on: RPMI-8226 leukemia
[40] = tested on: RXF 393 renal
[41] = tested on: SF-268 CNS
[42] = tested on: SF-295 CNS
[43] = tested on: SF-539 CNS
[44] = tested on: SK-MEL-2 melanoma
[45] = tested on: SK-MEL-28 melanoma
[46] = tested on: SK-MEL-5 melanoma
[47] = tested on: SK-OV-3 ovarian
[48] = tested on: SN12C renal
[49] = tested on: SNB-19 CNS
[50] = tested on: SNB-75 CNS
[51] = tested on: SR leukemia
[52] = tested on: SW-620 colon
[53] = tested on: T-47D breast
[54] = tested on: TK-10 renal
[55] = tested on: U251 CNS
[56] = tested on: UACC-257 melanoma
[57] = tested on: UACC-62 melanoma
[58] = tested on: UO-31 renal

For `C[C@]12CC[C@H]3[C@@H](CCC4=C[C@@H](N5CCCC5)CC[C@@]43C)[C@@H]1C/C(=C\c1ccncc1)[C@@H]2O`, the TGI [1] was 10.8 µM, the TGI [2] was 29.1 µM and the TGI [3] was 40.6 µM. For the same compound, the TGI [4] was 38.9 µM, the TGI [5] was over 100 µM and the TGI [6] was over 100 µM. It also gave a TGI [7] of 20.7 µM, a TGI [8] of 39.5 µM and a TGI [9] of 49.6 µM. It also gave a TGI [10] of 18 µM, a TGI [11] of 21.1 µM and a TGI [12] of 26.2 µM. It also gave a TGI [13] of 41.8 µM, a TGI [14] of 18.3 µM and a TGI [15] of 31.2 µM. The TGI [16] was 36.1 µM, the TGI [17] was 11 µM and the TGI [18] was 64.6 µM. For the same compound, the TGI [19] was over 100 µM, the TGI [20] was 31 µM and the TGI [21] was 21.4 µM. For the same compound, the TGI [22] was 5.66 µM, the TGI [23] was 27.8 µM and the TGI [24] was 26.1 µM. For the same compound, the TGI [25] was 29.8 µM, the TGI [26] was 27.1 µM and the TGI [27] was 24.9 µM. The TGI [28] was over 100 µM, the TGI [29] was 33.7 µM and the TGI [30] was 34.2 µM. The TGI [31] was 26.4 µM, the TGI [32] was 24.1 µM and the TGI [33] was 43.9 µM. For the same compound, the TGI [34] was 41.2 µM, the TGI [35] was 75.8 µM and the TGI [36] was 53.6 µM. The TGI [37] was 63.5 µM, the TGI [38] was 30.8 µM and the TGI [39] was 28.5 µM. The TGI [40] was 19 µM, the TGI [41] was 41.8 µM and the TGI [42] was 17.6 µM. For the same compound, the TGI [43] was 28.1 µM, the TGI [44] was 30.9 µM and the TGI [45] was 24.2 µM. For the same compound, the TGI [46] was 25.2 µM, the TGI [47] was 61.7 µM and the TGI [48] was 28.5 µM. It also gave a TGI [49] of 30.1 µM, a TGI [50] of 42.2 µM and a TGI [51] of 12.8 µM. It also gave a TGI [52] of 43.6 µM, a TGI [53] of 65.8 µM and a TGI [54] of 26.5 µM. It also gave a TGI [55] of 28.5 µM, a TGI [56] of 18.7 µM and a TGI [57] of 29.9 µM. For the same compound, the TGI [58] was 18.4 µM.
Compound `COc1ccc([C@H]2CC(=O)C[C@H](c3ccc(OC)cc3OC)C23C(=O)c2ccccc2C3=O)c(OC)c1` has a TGI [1] of over 100 µM, a TGI [2] of over 100 µM and a TGI [3] of over 100 µM. It also gave a TGI [4] of over 100 µM, a TGI [5] of over 100 µM and a TGI [6] of over 100 µM. For the same compound, the TGI [7] was over 100 µM, the TGI [8] was over 100 µM and the TGI [9] was over 100 µM. It also gave a TGI [10] of over 100 µM, a TGI [11] of over 100 µM and a TGI [12] of over 100 µM. The TGI [13] was over 100 µM, the TGI [14] was over 100 µM and the TGI [15] was over 100 µM. For the same compound, the TGI [16] was over 100 µM, the TGI [17] was over 100 µM and the TGI [18] was over 100 µM. For the same compound, the TGI [19] was over 100 µM, the TGI [20] was over 100 µM and the TGI [21] was over 100 µM. For the same compound, the TGI [22] was over 100 µM, the TGI [23] was over 100 µM and the TGI [24] was over 100 µM. It also gave a TGI [25] of over 100 µM, a TGI [26] of over 100 µM and a TGI [27] of over 100 µM. It also gave a TGI [28] of over 100 µM, a TGI [29] of over 100 µM and a TGI [30] of over 100 µM. For the same compound, the TGI [31] was over 100 µM, the TGI [32] was over 100 µM and the TGI [33] was over 100 µM. For the same compound, the TGI [34] was over 100 µM, the TGI [35] was over 100 µM and the TGI [36] was over 100 µM. It also gave a TGI [37] of over 100 µM, a TGI [38] of over 100 µM and a TGI [39] of over 100 µM. The TGI [40] was over 100 µM, the TGI [41] was over 100 µM and the TGI [42] was over 100 µM. It also gave a TGI [43] of over 100 µM, a TGI [44] of over 100 µM and a TGI [45] of over 100 µM. It also gave a TGI [46] of over 100 µM, a TGI [47] of over 100 µM and a TGI [48] of over 100 µM. The TGI [49] was over 100 µM, the TGI [50] was over 100 µM and the TGI [51] was over 100 µM. It also gave a TGI [52] of over 100 µM, a TGI [53] of over 100 µM and a TGI [54] of over 100 µM. It also gave a TGI [55] of over 100 µM, a TGI [56] of over 100 µM and a TGI [57] of over 100 µM. For the same compound, the TGI [58] was over 100 µM.
Compound `Nc1nc2ccc(NCc3ccc(C(=O)NC(CCC(=O)O)C(=O)O)cc3)cc2c(=O)[nH]1` (centres undefined) has a TGI [1] of over 100 µM, a TGI [2] of over 100 µM and a TGI [3] of 39.9 µM. The TGI [4] was over 100 µM, the TGI [5] was over 100 µM and the TGI [6] was over 100 µM. The TGI [7] was over 100 µM, the TGI [8] was over 100 µM and the TGI [9] was over 100 µM. The TGI [10] was over 100 µM, the TGI [11] was over 100 µM and the TGI [12] was over 100 µM. For the same compound, the TGI [13] was over 100 µM, the TGI [14] was over 100 µM and the TGI [15] was over 100 µM. It also gave a TGI [16] of over 100 µM, a TGI [17] of over 100 µM and a TGI [18] of over 100 µM. For the same compound, the TGI [19] was over 100 µM, the TGI [20] was over 100 µM and the TGI [21] was over 100 µM. For the same compound, the TGI [22] was 87.5 µM, the TGI [23] was over 100 µM and the TGI [24] was over 100 µM. For the same compound, the TGI [25] was over 100 µM, the TGI [26] was over 100 µM and the TGI [27] was over 100 µM. The TGI [28] was over 100 µM, the TGI [29] was over 100 µM and the TGI [30] was over 100 µM. For the same compound, the TGI [31] was over 100 µM, the TGI [32] was over 100 µM and the TGI [33] was over 100 µM. It also gave a TGI [34] of over 100 µM, a TGI [35] of over 100 µM and a TGI [36] of over 100 µM. For the same compound, the TGI [37] was over 100 µM, the TGI [38] was over 100 µM and the TGI [39] was over 100 µM. For the same compound, the TGI [40] was over 100 µM, the TGI [41] was over 100 µM and the TGI [42] was over 100 µM. For the same compound, the TGI [43] was over 100 µM, the TGI [44] was over 100 µM and the TGI [45] was over 100 µM. The TGI [46] was over 100 µM, the TGI [47] was over 100 µM and the TGI [48] was over 100 µM. For the same compound, the TGI [49] was over 100 µM, the TGI [50] was over 100 µM and the TGI [51] was over 100 µM. The TGI [52] was over 100 µM, the TGI [53] was over 100 µM and the TGI [54] was over 100 µM. For the same compound, the TGI [55] was over 100 µM, the TGI [56] was over 100 µM and the TGI [57] was over 100 µM. The TGI [58] was over 100 µM.

Source: PubChem BioAssay (NCI)
